According to ChEMBL document CHEMBL1156011, “Identification of orally bioavailable, non-amidine inhibitors of Urokinase Plasminogen Activator (uPA)” (Bioorg Med Chem Lett, 2009):

Tested on: not listed separately
Assay: Cmax in rat
Format: ADME, organism-based
Conditions: in vivo
With `CN(C)c1ccc(C(=O)O)c(Oc2nc(Oc3cccc(-c4cccc(CN)c4)c3)c(F)cc2F)c1` the Cmax was 33 ng/mL.
With `Cc1ccc(C(=O)O)c(Oc2nc(Oc3cccc(-c4cccc(CN)c4)c3)c(F)cc2F)c1` the Cmax was 220 ng/mL.
Work on `Cc1ccc(C(=O)O)c(Oc2nc(Oc3cc(N)cc(-c4cccc(CN)c4)c3)c(F)cc2F)c1` yielded a Cmax of 59 ng/mL.

Tested on: not listed separately
Assay: Clearance in rat
Format: ADME, organism-based
Conditions: in vivo
Molecule `CN(C)c1ccc(C(=O)O)c(Oc2nc(Oc3cccc(-c4cccc(CN)c4)c3)c(F)cc2F)c1` has a clearance of 26 mL/min/kg.
`CN(C)c1ccc(C(=O)O)c(Oc2nc(Oc3cccc(-c4cccc(CN)c4)c3)c(F)c(N3CCC(N(C)C)C3)c2F)c1` (stereo unspecified) gave a clearance of 5 mL/min/kg.
In the case of `Cc1ccc(C(=O)O)c(Oc2nc(Oc3cccc(-c4cccc(CN)c4)c3)c(F)cc2F)c1`, the clearance is reported as 54 mL/min/kg.
`Cc1ccc(C(=O)O)c(Oc2nc(Oc3cc(N)cc(-c4cccc(CN)c4)c3)c(F)cc2F)c1` gave a clearance of 257 mL/min/kg.

Tested on: not listed separately
Assay: Oral bioavailability in rat
Format: ADME, organism-based
Conditions: in vivo
Work on `CN(C)c1ccc(C(=O)O)c(Oc2nc(Oc3cccc(-c4cccc(CN)c4)c3)c(F)cc2F)c1` yielded a bioavailability of 9%.
With `CN(C)c1ccc(C(=O)O)c(Oc2nc(Oc3cccc(-c4cccc(CN)c4)c3)c(F)c(N3CCC(N(C)C)C3)c2F)c1` (stereo unspecified) the bioavailability was 0%.
`Cc1ccc(C(=O)O)c(Oc2nc(Oc3cccc(-c4cccc(CN)c4)c3)c(F)cc2F)c1` showed a bioavailability of 37%.
With `Cc1ccc(C(=O)O)c(Oc2nc(Oc3cc(N)cc(-c4cccc(CN)c4)c3)c(F)cc2F)c1` the bioavailability was 18%.

Biological target: Urokinase-type plasminogen activator (Homo sapiens, UniProt P00749)
Assay: Inhibition of uPA
Conditions: not given
With `CN(C)c1ccc(C(=O)O)c(Oc2nc(Oc3cccc(-c4ccc(CN)cc4)c3)c(F)cc2F)c1` the IC50 was > 30000 nM.
In the case of `CNc1c(F)c(Oc2cccc(-c3cccc(CN)c3)c2)nc(Oc2cc(N(C)C)ccc2C(=O)O)c1F`, the IC50 is reported as 130 nM.
With `CN(C)Cc1cccc(-c2cccc(Oc3nc(Oc4cc(N(C)C)ccc4C(=O)O)c(F)cc3F)c2)c1` the IC50 was > 30000 nM.
With `Cc1ccc(C(=O)O)c(Oc2nc(Oc3cc(-c4cccc(CN)c4)ccc3N)c(F)cc2F)c1` the IC50 was 89 nM.
In the case of `COc1ccc(C(=O)O)c(Oc2nc(Oc3cccc(-c4cccc(CN)c4)c3)c(F)cc2F)c1`, the IC50 is reported as 220 nM.
`NCc1cccc(-c2cccc(Oc3nc(Oc4ccccc4CC(=O)O)c(F)cc3F)c2)c1` gave an IC50 of 8100 nM.
For `CNCc1cccc(-c2cccc(Oc3nc(Oc4cc(N(C)C)ccc4C(=O)O)c(F)cc3F)c2)c1`, the IC50 was > 30000 nM.
For `Cc1ccc(C(=O)O)c(Oc2nc(Oc3cc(CN)cc(-c4cccc(CN)c4)c3)c(F)cc2F)c1`, the IC50 was 2700 nM.
With `Cc1c(F)c(Oc2cccc(-c3cccc(C(=N)N)c3)c2)nc(Oc2cc(N(C)C)ccc2C(=O)O)c1F` the IC50 was 98 nM.
`CN(C)c1ccc(C(=O)O)c(Oc2nc(Oc3cccc(-c4cccc(CN)c4)c3)c(F)cc2F)c1` showed an IC50 of 100 nM.
`Cc1ccc(-n2cnnn2)c(Oc2nc(Oc3cccc(-c4cccc(CN)c4)c3)c(F)cc2F)c1` gave an IC50 of 13000 nM.
Molecule `Cc1ccc(C(=O)O)c(Oc2nc(Oc3cc(O)cc(-c4cccc(CN)c4)c3)c(F)cc2F)c1` has an IC50 of 23 nM.
Molecule `NCc1cccc(-c2cccc(Oc3nc(Oc4cccc(C(=O)O)c4)c(F)cc3F)c2)c1` has an IC50 of 20000 nM.
With `NCc1cccc(-c2cccc(Oc3nc(Oc4ccc(C(=O)O)cc4)c(F)cc3F)c2)c1` the IC50 was > 30000 nM.
In the case of `Cc1cccc(C(=O)O)c1Oc1nc(Oc2cccc(-c3cccc(CN)c3)c2)c(F)cc1F`, the IC50 is reported as 540 nM.
`Cc1ccc(C(=O)O)c(Oc2nc(Oc3cc(N)cc(-c4cccc(CN)c4)c3)c(F)c(N3CCC(N(C)C)C3)c2F)c1` (stereo unspecified) showed an IC50 of 15 nM.
Molecule `CN(C)CCN(C)c1c(F)c(Oc2cccc(-c3cccc(CN)c3)c2)nc(Oc2cc(N(C)C)ccc2C(=O)O)c1F` has an IC50 of 100 nM.
`CN(C)c1ccc(C(=O)O)c(Oc2nc(Oc3cccc(-c4cccc(CN)c4)c3)c(F)c(N3CCNCC3)c2F)c1` showed an IC50 of 65 nM.
For `Cc1ccc(C(=O)O)c(Oc2nc(Oc3ccc(N)c(-c4cccc(CN)c4)c3)c(F)cc2F)c1`, the IC50 was > 30000 nM.
Work on `NCc1cccc(-c2cccc(Oc3nc(Oc4ccccc4C(=O)O)c(F)cc3F)c2)c1` yielded an IC50 of 840 nM.
In the case of `CN(C)c1ccc(C(=O)O)c(Oc2nc(Oc3cccc(-c4cccc(CN)c4)c3)c(F)c(N3CCOCC3)c2F)c1`, the IC50 is reported as 900 nM.
For `Cc1cccc(Oc2nc(Oc3cccc(-c4cccc(CN)c4)c3)c(F)cc2F)c1C(=O)O`, the IC50 was 26000 nM.
`Cc1ccc(Oc2nc(Oc3cccc(-c4cccc(CN)c4)c3)c(F)cc2F)c(C(=O)O)c1` showed an IC50 of 3500 nM.
Work on `Cc1ccc(C(=O)O)c(Oc2nc(Oc3cccc(-c4cccc(CN)c4)c3)c(F)cc2F)c1` yielded an IC50 of 240 nM.
Work on `CC(C)c1ccc(C(=O)O)c(Oc2nc(Oc3cccc(-c4cccc(CN)c4)c3)c(F)cc2F)c1` yielded an IC50 of 680 nM.
For `NCc1cccc(-c2cccc(Oc3nc(Oc4ccccc4CCC(=O)O)c(F)cc3F)c2)c1`, the IC50 was > 30000 nM.
With `Cc1ccc(C(=O)O)c(Oc2nc(Oc3cc(N)cc(-c4cccc(CN)c4)c3)c(F)cc2F)c1` the IC50 was 39 nM.
With `CN(C)c1ccc(C(=O)O)c(Oc2nc(Oc3cccc(-c4cccc(CN)c4)c3)c(F)c(N(C)C)c2F)c1` the IC50 was 530 nM.
In the case of `NCc1cccc(-c2cccc(Oc3nc(Oc4cc([N+](=O)[O-])ccc4C(=O)O)c(F)cc3F)c2)c1`, the IC50 is reported as 1300 nM.

Biological target: Plasminogen (Homo sapiens, UniProt P00747)
Sequence (P00747 97-580 limits assumed): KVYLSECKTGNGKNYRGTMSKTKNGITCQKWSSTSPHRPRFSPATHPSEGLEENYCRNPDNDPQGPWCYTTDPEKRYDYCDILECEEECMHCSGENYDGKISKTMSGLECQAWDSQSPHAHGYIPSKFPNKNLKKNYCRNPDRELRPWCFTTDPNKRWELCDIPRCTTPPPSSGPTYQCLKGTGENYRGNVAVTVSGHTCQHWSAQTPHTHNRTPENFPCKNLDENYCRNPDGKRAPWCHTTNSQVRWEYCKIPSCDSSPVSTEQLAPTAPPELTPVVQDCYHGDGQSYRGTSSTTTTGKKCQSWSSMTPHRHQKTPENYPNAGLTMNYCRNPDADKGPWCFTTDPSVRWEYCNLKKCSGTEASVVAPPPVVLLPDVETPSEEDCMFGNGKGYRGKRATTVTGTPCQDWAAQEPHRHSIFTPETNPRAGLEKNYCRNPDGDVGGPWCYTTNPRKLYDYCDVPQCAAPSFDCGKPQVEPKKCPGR
Sequence (P00747 581-810 limits assumed): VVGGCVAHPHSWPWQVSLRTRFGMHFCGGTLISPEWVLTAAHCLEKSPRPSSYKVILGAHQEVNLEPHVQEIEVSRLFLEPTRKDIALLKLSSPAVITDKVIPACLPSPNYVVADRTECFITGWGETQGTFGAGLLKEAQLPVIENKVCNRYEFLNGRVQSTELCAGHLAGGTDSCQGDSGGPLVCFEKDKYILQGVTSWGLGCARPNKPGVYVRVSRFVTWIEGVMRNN
Assay: Inhibition of plasmin
Conditions: not given
Molecule `CNc1c(F)c(Oc2cccc(-c3cccc(CN)c3)c2)nc(Oc2cc(N(C)C)ccc2C(=O)O)c1F` has an IC50 of 3.6 µM.
`Cc1ccc(C(=O)O)c(Oc2nc(Oc3cc(-c4cccc(CN)c4)ccc3N)c(F)cc2F)c1` gave an IC50 of 11 µM.
With `COc1ccc(C(=O)O)c(Oc2nc(Oc3cccc(-c4cccc(CN)c4)c3)c(F)cc2F)c1` the IC50 was 9.4 µM.
`Cc1ccc(C(=O)O)c(Oc2nc(Oc3cc(CN)cc(-c4cccc(CN)c4)c3)c(F)cc2F)c1` showed an IC50 of 2.7 µM.
Molecule `Cc1c(F)c(Oc2cccc(-c3cccc(C(=N)N)c3)c2)nc(Oc2cc(N(C)C)ccc2C(=O)O)c1F` has an IC50 of 2.1 µM.
`CN(C)c1ccc(C(=O)O)c(Oc2nc(Oc3cccc(-c4cccc(CN)c4)c3)c(F)cc2F)c1` showed an IC50 of 6.5 µM.
In the case of `Cc1ccc(C(=O)O)c(Oc2nc(Oc3cc(O)cc(-c4cccc(CN)c4)c3)c(F)cc2F)c1`, the IC50 is reported as 5.5 µM.
`Cc1cccc(C(=O)O)c1Oc1nc(Oc2cccc(-c3cccc(CN)c3)c2)c(F)cc1F` showed an IC50 of 8.6 µM.
Molecule `Cc1ccc(C(=O)O)c(Oc2nc(Oc3cc(N)cc(-c4cccc(CN)c4)c3)c(F)c(N3CCC(N(C)C)C3)c2F)c1` (stereo unspecified) has an IC50 of 3 µM.
`CN(C)CCN(C)c1c(F)c(Oc2cccc(-c3cccc(CN)c3)c2)nc(Oc2cc(N(C)C)ccc2C(=O)O)c1F` gave an IC50 of 6.3 µM.
`CN(C)c1ccc(C(=O)O)c(Oc2nc(Oc3cccc(-c4cccc(CN)c4)c3)c(F)c(N3CCNCC3)c2F)c1` showed an IC50 of 4.4 µM.
`NCc1cccc(-c2cccc(Oc3nc(Oc4ccccc4C(=O)O)c(F)cc3F)c2)c1` showed an IC50 of 21 µM.
Work on `CN(C)c1ccc(C(=O)O)c(Oc2nc(Oc3cccc(-c4cccc(CN)c4)c3)c(F)c(N3CCOCC3)c2F)c1` yielded an IC50 of 2.1 µM.
In the case of `CN(C)c1ccc(C(=O)O)c(Oc2nc(Oc3cccc(-c4cccc(CN)c4)c3)c(F)c(N3CCC(N(C)C)C3)c2F)c1` (stereo unspecified), the IC50 is reported as 1.9 µM.
With `Cc1ccc(C(=O)O)c(Oc2nc(Oc3cccc(-c4cccc(CN)c4)c3)c(F)cc2F)c1` the IC50 was 5 µM.
`CC(C)c1ccc(C(=O)O)c(Oc2nc(Oc3cccc(-c4cccc(CN)c4)c3)c(F)cc2F)c1` showed an IC50 of 2.8 µM.
`Cc1ccc(C(=O)O)c(Oc2nc(Oc3cc(N)cc(-c4cccc(CN)c4)c3)c(F)cc2F)c1` showed an IC50 of 5 µM.
`CN(C)c1ccc(C(=O)O)c(Oc2nc(Oc3cccc(-c4cccc(CN)c4)c3)c(F)c(N(C)C)c2F)c1` showed an IC50 of 2.9 µM.

Tested on: not listed separately
Assay: Half life in rat
Format: ADME, organism-based
Conditions: in vivo
`CN(C)c1ccc(C(=O)O)c(Oc2nc(Oc3cccc(-c4cccc(CN)c4)c3)c(F)cc2F)c1` showed a half-life of 30 min.
`CN(C)c1ccc(C(=O)O)c(Oc2nc(Oc3cccc(-c4cccc(CN)c4)c3)c(F)c(N3CCC(N(C)C)C3)c2F)c1` (stereo unspecified) showed a half-life of 276 min.
For `Cc1ccc(C(=O)O)c(Oc2nc(Oc3cccc(-c4cccc(CN)c4)c3)c(F)cc2F)c1`, the half-life was 30 min.
In the case of `Cc1ccc(C(=O)O)c(Oc2nc(Oc3cc(N)cc(-c4cccc(CN)c4)c3)c(F)cc2F)c1`, the half-life is reported as 15.6 min.

Tested on: not listed separately
Assay: Volume of distribution in rat
Format: ADME, organism-based
Conditions: in vivo
`CN(C)c1ccc(C(=O)O)c(Oc2nc(Oc3cccc(-c4cccc(CN)c4)c3)c(F)cc2F)c1` gave a Vd of 1.15 L/kg.
In the case of `CN(C)c1ccc(C(=O)O)c(Oc2nc(Oc3cccc(-c4cccc(CN)c4)c3)c(F)c(N3CCC(N(C)C)C3)c2F)c1` (stereo unspecified), the Vd is reported as 1 L/kg.
Work on `Cc1ccc(C(=O)O)c(Oc2nc(Oc3cccc(-c4cccc(CN)c4)c3)c(F)cc2F)c1` yielded a Vd of 0.7 L/kg.
`Cc1ccc(C(=O)O)c(Oc2nc(Oc3cc(N)cc(-c4cccc(CN)c4)c3)c(F)cc2F)c1` showed a Vd of 4.6 L/kg.

Biological target: Tissue-type plasminogen activator (Homo sapiens, UniProt P00750)
Sequence (P00750 whole entry): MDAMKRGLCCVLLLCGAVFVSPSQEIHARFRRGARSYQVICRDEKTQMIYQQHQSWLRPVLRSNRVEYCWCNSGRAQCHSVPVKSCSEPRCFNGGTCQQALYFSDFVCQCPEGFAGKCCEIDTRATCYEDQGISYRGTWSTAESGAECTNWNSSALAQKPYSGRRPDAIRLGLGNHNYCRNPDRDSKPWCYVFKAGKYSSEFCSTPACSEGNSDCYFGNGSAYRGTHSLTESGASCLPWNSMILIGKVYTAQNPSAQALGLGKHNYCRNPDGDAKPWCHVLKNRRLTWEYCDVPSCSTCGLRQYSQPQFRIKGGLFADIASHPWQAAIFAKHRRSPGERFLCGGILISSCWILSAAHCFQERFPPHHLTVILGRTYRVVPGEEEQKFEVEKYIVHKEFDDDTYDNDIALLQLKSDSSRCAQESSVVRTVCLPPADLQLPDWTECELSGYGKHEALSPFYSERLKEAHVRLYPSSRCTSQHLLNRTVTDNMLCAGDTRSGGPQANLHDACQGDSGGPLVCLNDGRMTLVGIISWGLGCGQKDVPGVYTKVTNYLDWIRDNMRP
Assay: Inhibition of tPA
Conditions: not given
With `CNc1c(F)c(Oc2cccc(-c3cccc(CN)c3)c2)nc(Oc2cc(N(C)C)ccc2C(=O)O)c1F` the IC50 was 16 µM.
`Cc1ccc(C(=O)O)c(Oc2nc(Oc3cc(-c4cccc(CN)c4)ccc3N)c(F)cc2F)c1` showed an IC50 of 15 µM.
In the case of `COc1ccc(C(=O)O)c(Oc2nc(Oc3cccc(-c4cccc(CN)c4)c3)c(F)cc2F)c1`, the IC50 is reported as > 30 µM.
For `Cc1c(F)c(Oc2cccc(-c3cccc(C(=N)N)c3)c2)nc(Oc2cc(N(C)C)ccc2C(=O)O)c1F`, the IC50 was 3.9 µM.
Work on `CN(C)c1ccc(C(=O)O)c(Oc2nc(Oc3cccc(-c4cccc(CN)c4)c3)c(F)cc2F)c1` yielded an IC50 of 18 µM.
For `Cc1ccc(C(=O)O)c(Oc2nc(Oc3cc(O)cc(-c4cccc(CN)c4)c3)c(F)cc2F)c1`, the IC50 was 14 µM.
`Cc1ccc(C(=O)O)c(Oc2nc(Oc3cc(N)cc(-c4cccc(CN)c4)c3)c(F)c(N3CCC(N(C)C)C3)c2F)c1` (stereo unspecified) gave an IC50 of 8.5 µM.
Molecule `CN(C)CCN(C)c1c(F)c(Oc2cccc(-c3cccc(CN)c3)c2)nc(Oc2cc(N(C)C)ccc2C(=O)O)c1F` has an IC50 of 28 µM.
`CN(C)c1ccc(C(=O)O)c(Oc2nc(Oc3cccc(-c4cccc(CN)c4)c3)c(F)c(N3CCNCC3)c2F)c1` showed an IC50 of 11 µM.
In the case of `NCc1cccc(-c2cccc(Oc3nc(Oc4ccccc4C(=O)O)c(F)cc3F)c2)c1`, the IC50 is reported as > 30 µM.
With `CN(C)c1ccc(C(=O)O)c(Oc2nc(Oc3cccc(-c4cccc(CN)c4)c3)c(F)c(N3CCOCC3)c2F)c1` the IC50 was 10 µM.
For `CN(C)c1ccc(C(=O)O)c(Oc2nc(Oc3cccc(-c4cccc(CN)c4)c3)c(F)c(N3CCC(N(C)C)C3)c2F)c1` (stereo unspecified), the IC50 was 5.2 µM.
Work on `Cc1ccc(C(=O)O)c(Oc2nc(Oc3cccc(-c4cccc(CN)c4)c3)c(F)cc2F)c1` yielded an IC50 of 22 µM.
With `Cc1ccc(C(=O)O)c(Oc2nc(Oc3cc(N)cc(-c4cccc(CN)c4)c3)c(F)cc2F)c1` the IC50 was > 30 µM.
In the case of `CN(C)c1ccc(C(=O)O)c(Oc2nc(Oc3cccc(-c4cccc(CN)c4)c3)c(F)c(N(C)C)c2F)c1`, the IC50 is reported as > 30 µM.
